Measurements published in PubChem BioAssay AID248 (DTP/NCI, 2004).
Where “and” joins values, the source holds several entries; their conditions need not be identical. Equal values may be shown once. Inconclusive results and toxic doses are left out. Rule as the data show it: active = T/C of 150% or more; inactive = T/C below 125%.

System: L1210 leukemia ip in BDF1 mice, survival T/C
Experiment: NCI In Vivo Anticancer Drug Screen. Data for tumor model L1210 Leukemia (intraperitoneal) in B6D2F1 (BDF1) mice
Settings: endpoint: mean survival time, higher = longer survival
Summary of the method: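 Ratio derived from survival: compound-dosed mice over vehicle-dosed mice, all bearing a transplantable tumor.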

[1] = dose: 100.0 mg/kg/injection, schedule: Q04DX003 (ip), vehicle: saline with Tween-80
[2] = dose: 100.0 mg/kg/injection, schedule: Q01DX001 (ip), vehicle: saline
[3] = dose: 100.0 mg/kg/injection, schedule: Q01DX001 (ip), vehicle: other
[4] = dose: 200.0 mg/kg/injection, schedule: Q01DX001 (ip), vehicle: other
[5] = dose: 400.0 mg/kg/injection, schedule: Q01DX001 (ip), vehicle: other
[6] = dose: 100.0 mg/kg/injection, schedule: Q01DX009 (ip), vehicle: Klucel (hydroxypropylcellulose) (HPC)
[7] = dose: 100.0 mg/kg/injection, schedule: Q04DX003 (ip), vehicle: Klucel (hydroxypropylcellulose) (HPC)
[8] = dose: 200.0 mg/kg/injection, schedule: Q04DX003 (ip), vehicle: Klucel (hydroxypropylcellulose) (HPC)
[9] = dose: 400.0 mg/kg/injection, schedule: Q04DX003 (ip), vehicle: Klucel (hydroxypropylcellulose) (HPC)
[10] = dose: 12.5 mg/kg/injection, schedule: Q04DX003 (ip), vehicle: saline
[11] = dose: 25.0 mg/kg/injection, schedule: Q04DX003 (ip), vehicle: saline
[12] = dose: 50.0 mg/kg/injection, schedule: Q04DX003 (ip), vehicle: saline
[13] = dose: 100.0 mg/kg/injection, schedule: Q04DX002 (ip), vehicle: saline
[14] = dose: 200.0 mg/kg/injection, schedule: Q04DX002 (ip), vehicle: saline
[15] = dose: 400.0 mg/kg/injection, schedule: Q04DX002 (ip), vehicle: saline

Measured: T/C

O=C(/C=N/O)Nc1cc(Cl)ccc1Cl
inactive: dose: 100.0 mg/kg/injection, schedule: Q01DX009 (ip), vehicle: saline with Tween-80 91 % of control | [1] 97 % of control | dose: 200.0 mg/kg/injection, schedule: Q01DX009 (ip), vehicle: saline with Tween-80 87 % of control | dose: 200.0 mg/kg/injection, schedule: Q04DX003 (ip), vehicle: saline with Tween-80 93 % of control | dose: 400.0 mg/kg/injection, schedule: Q01DX009 (ip), vehicle: saline with Tween-80 88 % of control | dose: 400.0 mg/kg/injection, schedule: Q04DX003 (ip), vehicle: saline with Tween-80 108 % of control

COc1ccccc1CN1CCCN(Cc2ccccc2OC)C1c1ccc(N(CCCl)CCCl)cc1C
inactive: [2] 88 % of control | dose: 100.0 mg/kg/injection, schedule: Q01DX009 (ip), vehicle: saline 98 % of control | dose: 200.0 mg/kg/injection, schedule: Q01DX001 (ip), vehicle: saline 88 % of control | dose: 200.0 mg/kg/injection, schedule: Q01DX009 (ip), vehicle: saline 95 % of control | dose: 400.0 mg/kg/injection, schedule: Q01DX001 (ip), vehicle: saline 87 % of control

c1ccc2c(c1)OCCOCCOCCOCCO2
inactive: dose: 6.25 mg/kg/injection, schedule: Q04DX002 (ip), vehicle: saline 89 % of control | dose: 12.5 mg/kg/injection, schedule: Q04DX002 (ip), vehicle: saline 103 % of control | dose: 25.0 mg/kg/injection, schedule: Q04DX002 (ip), vehicle: saline 113 % of control | dose: 50.0 mg/kg/injection, schedule: Q04DX002 (ip), vehicle: saline 94 % of control

Cn1c(=O)c2[nH]c(CC3=CCCCC3)nc2n(C)c1=O
inactive: dose: 50.0 mg/kg/injection, schedule: Q01DX001 (ip), vehicle: other 97 % of control | [3] 92 % of control | [4] 95 % of control | [5] 90 % of control

NNC(=O)c1ccc(Br)cc1
inactive: dose: 25.0 mg/kg/injection, schedule: Q01DX009 (ip), vehicle: Klucel (hydroxypropylcellulose) (HPC) 93 % of control | dose: 50.0 mg/kg/injection, schedule: Q01DX009 (ip), vehicle: Klucel (hydroxypropylcellulose) (HPC) 96 % of control | [6] 104 % of control | [7] 94 % of control | [8] 103 % of control | [9] 106 % of control

CC1(C)N=C2OCCN2C1=O
inactive: [10] 101 % of control | [11] 111 % of control | [12] 93 % of control | dose: 100.0 mg/kg/injection, schedule: Q04DX003 (ip), vehicle: saline 101 % of control | dose: 200.0 mg/kg/injection, schedule: Q04DX003 (ip), vehicle: saline 98 % of control and 102 % of control | dose: 300.0 mg/kg/injection, schedule: Q04DX003 (ip), vehicle: saline 104 % of control

O=[N+]([O-])c1ccc(Oc2cc(Cl)c(Cl)cc2Cl)c(Cl)c1
inactive: dose: 75.0 mg/kg/injection, schedule: Q01DX001 (ip), vehicle: saline 87 % of control | dose: 150.0 mg/kg/injection, schedule: Q01DX001 (ip), vehicle: saline 90 % of control | dose: 300.0 mg/kg/injection, schedule: Q01DX001 (ip), vehicle: saline 87 % of control

CCCCOC(=O)c1ccc(NC(=O)Nc2ccccc2)cc1
inactive: dose: 25.0 mg/kg/injection, schedule: Q04DX003 (ip), vehicle: saline with Tween-80 101 % of control | dose: 50.0 mg/kg/injection, schedule: Q04DX003 (ip), vehicle: saline with Tween-80 93 % of control | [1] 93 % of control and 97 % of control

O=S(=O)(O)CCNC(=S)C(=S)NCCS(=O)(=O)O
inactive: [13] 101 % of control | [14] 101 % of control | [15] 101 % of control

CCCCC(C#N)C(O)C1CCCCC1 (centres undefined)
inactive: [3] 100 % of control | [4] 103 % of control | [5] 103 % of control

O=[N+]([O-])c1cccn2nc(-c3ccccc3)nc12
inactive: dose: 100.0 mg/kg/injection, schedule: Q01DX001 (ip), vehicle: acetone 98 % of control | dose: 200.0 mg/kg/injection, schedule: Q01DX001 (ip), vehicle: acetone 98 % of control | dose: 400.0 mg/kg/injection, schedule: Q01DX001 (ip), vehicle: acetone 101 % of control

CCCCCCCCCc1ccc(OC(C)OCCOCCOCC)cc1 (centres undefined)
inactive: [13] 97 % of control | [14] 100 % of control | [15] 105 % of control

C[N+](C)(C)CSSC[N+](C)(C)C
inactive: [10] 92 % of control | [11] 87 % of control | [12] 93 % of control

O=C(Nc1ccc(Br)cc1C(F)(F)F)C(F)(F)F
inactive: dose: 50.0 mg/kg/injection, schedule: Q04DX003 (ip), vehicle: Klucel (hydroxypropylcellulose) (HPC) 102 % of control | dose: 100.0 mg/kg/injection, schedule: Q01DX001 (ip), vehicle: Klucel (hydroxypropylcellulose) (HPC) 100 % of control | [7] 104 % of control | dose: 200.0 mg/kg/injection, schedule: Q01DX001 (ip), vehicle: Klucel (hydroxypropylcellulose) (HPC) 94 % of control | [8] 112 % of control | dose: 400.0 mg/kg/injection, schedule: Q01DX001 (ip), vehicle: Klucel (hydroxypropylcellulose) (HPC) 97 % of control | [9] 105 % of control

COc1ccc(C(=O)c2ccccc2)c(OC(=O)Nc2cc([N+](=O)[O-])ccc2F)c1
inactive: [7] 95 % of control | [8] 101 % of control | [9] 98 % of control

O=C(Nc1ccc(NC2=NCCN2)cc1)c1cc(C(=O)Nc2ccc(NC3=NCCN3)cc2)cc([N+](=O)[O-])c1
inactive: dose: 1.87 mg/kg/injection, schedule: Q01DX Z (ip), vehicle: saline 113 % of control | dose: 3.75 mg/kg/injection, schedule: Q01DX Z (ip), vehicle: saline 109 % of control | dose: 7.5 mg/kg/injection, schedule: Q01DX Z (ip), vehicle: saline 115 % of control | dose: 15.0 mg/kg/injection, schedule: Q01DX Z (ip), vehicle: methylcellulose (MC) 94 % of control | dose: 15.0 mg/kg/injection, schedule: Q01DX Z (ip), vehicle: saline 105 % of control

Cc1cc2cccc[n+]2cc1C
inactive: dose: 12.5 mg/kg/injection, schedule: Q01DX009 (ip), vehicle: saline 95 % of control | dose: 25.0 mg/kg/injection, schedule: Q01DX009 (ip), vehicle: saline 98 % of control

C#CC(C)(O)C(C)(C)C (centres undefined)
inactive: dose: 100.0 mg/kg/injection, schedule: Q04DX002 (ip), vehicle: saline with Tween-80 91 % of control | dose: 200.0 mg/kg/injection, schedule: Q04DX002 (ip), vehicle: saline with Tween-80 95 % of control | dose: 400.0 mg/kg/injection, schedule: Q04DX002 (ip), vehicle: saline with Tween-80 87 % of control

O=c1[nH][nH]c(=O)c2[nH]cnc12
inactive: [6] 107 % of control | [7] 104 % of control | dose: 200.0 mg/kg/injection, schedule: Q01DX009 (ip), vehicle: Klucel (hydroxypropylcellulose) (HPC) 103 % of control | [8] 104 % of control | dose: 400.0 mg/kg/injection, schedule: Q01DX009 (ip), vehicle: Klucel (hydroxypropylcellulose) (HPC) 117 % of control | [9] 117 % of control

Nc1ncnc2c1ncn2C1OC(COC(=O)C2C3CC4CC(C3)CC2C4)C(O)C1O (centres undefined)
inactive: [2] 104 % of control
